Reference: paper PMC8657075 (Journal of biotechnology, 2021)
pKi: −log10 of the molar value.

Key:
[1] = molecular target: T1, dopamine transporter (DAT) (Rattus norvegicus, UniProt P23977); experiment: [3H]GBR […] radioligand displacement, rat striatal membranes; assay type: binding
[2] = molecular target: T1, dopamine transporter (DAT); experiment: [3H]GBR […] radioligand displacement; assay type: binding

T1 sequence (P23977 whole entry): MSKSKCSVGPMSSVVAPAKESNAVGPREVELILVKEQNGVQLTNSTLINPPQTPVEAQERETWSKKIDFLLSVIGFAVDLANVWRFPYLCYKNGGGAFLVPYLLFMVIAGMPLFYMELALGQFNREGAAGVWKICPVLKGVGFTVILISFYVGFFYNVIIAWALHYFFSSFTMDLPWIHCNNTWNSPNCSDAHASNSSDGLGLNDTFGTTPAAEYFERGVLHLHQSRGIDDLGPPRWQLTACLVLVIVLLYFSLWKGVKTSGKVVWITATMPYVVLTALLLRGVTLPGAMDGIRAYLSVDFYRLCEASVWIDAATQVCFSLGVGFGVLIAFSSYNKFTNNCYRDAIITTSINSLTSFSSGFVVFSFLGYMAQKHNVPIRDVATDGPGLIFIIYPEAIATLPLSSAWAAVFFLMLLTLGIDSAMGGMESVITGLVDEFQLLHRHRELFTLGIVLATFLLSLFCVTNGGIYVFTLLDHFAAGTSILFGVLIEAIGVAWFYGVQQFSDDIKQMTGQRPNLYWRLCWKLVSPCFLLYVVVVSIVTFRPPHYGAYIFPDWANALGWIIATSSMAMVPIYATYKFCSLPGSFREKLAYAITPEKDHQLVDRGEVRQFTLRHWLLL

Molecule | pKi [1] | pKi [2]
CN1CCCC2C(c3ccccc3)C(C3=NCCCC3)C(c3ccccc3)CC21 (centres unmarked) [lobinaline] | 5.60 | 
lobinaline N-oxide |  | 3.88
